Consider seven molecules from article PMC6199744, “Development of Chemical Proteomics for the Folateome and Analysis of the Kinetoplastid Folateome” (ACS Infectious Diseases, 2018).

Format in all cases: binding
Assay [1] deals with T1, HeLa cell extract proteins (Homo sapiens, UniProt P50991).
T1 construct: endogenous in cells; host or cells: HeLa cell extract
T1 sequence (P50991 1-539): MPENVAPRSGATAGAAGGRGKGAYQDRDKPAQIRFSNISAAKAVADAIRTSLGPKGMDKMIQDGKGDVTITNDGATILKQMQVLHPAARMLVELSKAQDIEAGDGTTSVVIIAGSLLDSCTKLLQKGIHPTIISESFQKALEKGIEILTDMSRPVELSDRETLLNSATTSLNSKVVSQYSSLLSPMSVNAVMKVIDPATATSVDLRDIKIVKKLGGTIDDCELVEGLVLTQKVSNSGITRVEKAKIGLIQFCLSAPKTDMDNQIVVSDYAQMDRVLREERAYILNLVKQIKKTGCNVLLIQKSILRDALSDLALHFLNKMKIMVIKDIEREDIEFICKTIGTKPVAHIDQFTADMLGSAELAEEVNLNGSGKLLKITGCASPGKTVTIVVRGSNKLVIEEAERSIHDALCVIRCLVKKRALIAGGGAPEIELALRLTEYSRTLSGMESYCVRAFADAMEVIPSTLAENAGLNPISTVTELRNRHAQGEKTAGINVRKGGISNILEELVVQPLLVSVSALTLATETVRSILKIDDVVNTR

For assay [2], the target named is T2, HeLa cell extract proteins (Homo sapiens, UniProt Q14204).
T2 construct: endogenous in cells; host or cells: HeLa cell extract

The target of assay [3] is T3, HeLa cell extract proteins (Homo sapiens, UniProt P22695).
T3 construct: endogenous in cells; host or cells: HeLa cell extract
T3 sequence (P22695 15-453): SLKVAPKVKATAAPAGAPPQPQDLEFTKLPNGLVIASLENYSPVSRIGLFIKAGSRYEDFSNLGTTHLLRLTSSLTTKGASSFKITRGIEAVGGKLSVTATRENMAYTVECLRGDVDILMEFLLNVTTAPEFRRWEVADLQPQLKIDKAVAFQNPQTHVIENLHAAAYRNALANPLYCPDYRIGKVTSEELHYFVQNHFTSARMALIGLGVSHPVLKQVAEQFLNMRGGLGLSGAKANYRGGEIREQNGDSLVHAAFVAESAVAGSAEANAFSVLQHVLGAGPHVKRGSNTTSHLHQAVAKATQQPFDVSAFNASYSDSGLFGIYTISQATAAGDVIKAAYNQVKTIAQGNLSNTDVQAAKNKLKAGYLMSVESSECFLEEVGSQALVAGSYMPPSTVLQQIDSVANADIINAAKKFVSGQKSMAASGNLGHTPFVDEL

In assay [4] the target is T4, HeLa cell extract proteins (Homo sapiens, UniProt O00330).
T4 construct: endogenous in cells; host or cells: HeLa cell extract
T4 sequence (O00330 54-501): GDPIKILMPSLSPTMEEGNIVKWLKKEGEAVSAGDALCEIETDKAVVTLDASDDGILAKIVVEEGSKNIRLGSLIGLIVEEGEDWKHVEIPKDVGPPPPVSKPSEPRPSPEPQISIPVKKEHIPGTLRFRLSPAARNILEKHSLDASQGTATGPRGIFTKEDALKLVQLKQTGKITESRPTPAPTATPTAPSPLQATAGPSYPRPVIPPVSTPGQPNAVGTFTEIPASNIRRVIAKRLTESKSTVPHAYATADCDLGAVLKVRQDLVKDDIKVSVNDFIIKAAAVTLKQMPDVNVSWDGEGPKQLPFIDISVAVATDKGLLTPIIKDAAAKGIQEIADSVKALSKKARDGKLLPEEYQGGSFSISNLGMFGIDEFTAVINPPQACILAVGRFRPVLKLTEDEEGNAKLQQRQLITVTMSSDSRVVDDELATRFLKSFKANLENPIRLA

Assay [5] has as its target T5, HeLa cell extract proteins (Homo sapiens, UniProt P48643).
T5 construct: endogenous in cells; host or cells: HeLa cell extract

Assay [6] addresses T6, HeLa cell extract proteins (Homo sapiens, UniProt P30101).
T6 construct: endogenous in cells; host or cells: HeLa cell extract
T6 sequence (P30101 25-505): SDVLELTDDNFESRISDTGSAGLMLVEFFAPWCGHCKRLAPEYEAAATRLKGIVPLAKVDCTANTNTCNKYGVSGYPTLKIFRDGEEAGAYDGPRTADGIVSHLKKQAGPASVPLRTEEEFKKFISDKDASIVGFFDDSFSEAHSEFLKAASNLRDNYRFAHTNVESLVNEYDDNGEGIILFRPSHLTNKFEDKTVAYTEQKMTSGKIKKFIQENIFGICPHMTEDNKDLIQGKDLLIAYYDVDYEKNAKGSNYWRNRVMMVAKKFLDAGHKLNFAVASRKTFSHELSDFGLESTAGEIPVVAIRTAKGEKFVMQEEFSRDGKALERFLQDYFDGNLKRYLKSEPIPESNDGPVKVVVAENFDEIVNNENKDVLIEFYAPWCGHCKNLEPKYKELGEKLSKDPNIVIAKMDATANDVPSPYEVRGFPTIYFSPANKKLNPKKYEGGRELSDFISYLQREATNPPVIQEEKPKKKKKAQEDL

In assay [7] the target is T7, HeLa cell extract proteins (Homo sapiens, UniProt Q9H974).
T7 construct: endogenous in cells; host or cells: HeLa cell extract
T7 sequence (Q9H974 whole entry): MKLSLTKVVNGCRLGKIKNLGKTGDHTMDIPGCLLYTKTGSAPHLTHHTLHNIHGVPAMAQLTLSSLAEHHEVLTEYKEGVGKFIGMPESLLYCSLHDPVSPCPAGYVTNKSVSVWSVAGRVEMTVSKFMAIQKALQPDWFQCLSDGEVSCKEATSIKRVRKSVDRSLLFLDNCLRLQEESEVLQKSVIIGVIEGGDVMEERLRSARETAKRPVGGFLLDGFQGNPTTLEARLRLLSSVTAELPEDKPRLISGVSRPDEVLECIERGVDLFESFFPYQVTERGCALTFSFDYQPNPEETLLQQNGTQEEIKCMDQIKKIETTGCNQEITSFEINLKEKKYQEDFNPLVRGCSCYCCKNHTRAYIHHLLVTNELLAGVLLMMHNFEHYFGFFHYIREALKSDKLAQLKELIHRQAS

Assay [8] has as its target T8, HeLa cell extract proteins (Homo sapiens, UniProt P30084).
T8 construct: endogenous in cells; host or cells: HeLa cell extract
T8 sequence (P30084 28-290): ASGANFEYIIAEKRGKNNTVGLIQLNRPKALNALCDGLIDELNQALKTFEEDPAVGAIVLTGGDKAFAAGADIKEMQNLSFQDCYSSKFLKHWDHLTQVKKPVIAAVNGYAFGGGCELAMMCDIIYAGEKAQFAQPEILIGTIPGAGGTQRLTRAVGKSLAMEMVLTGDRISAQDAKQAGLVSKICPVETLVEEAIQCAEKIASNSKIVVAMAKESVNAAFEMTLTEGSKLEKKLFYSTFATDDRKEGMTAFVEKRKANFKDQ

Setting [9] is: HeLa, protein CCT5 (T-COMPLEX PROTEIN 1 SUBUNIT EPSILON.).
The mark [10] stands for this setting: HeLa, protein PDHX (PYRUVATE DEH[…] X COMPONENT, MIT[…]).

Structures are written as SMILES. Read-outs that look alike come from different tables or passages of the source.

T5 sequence (P48643 whole entry): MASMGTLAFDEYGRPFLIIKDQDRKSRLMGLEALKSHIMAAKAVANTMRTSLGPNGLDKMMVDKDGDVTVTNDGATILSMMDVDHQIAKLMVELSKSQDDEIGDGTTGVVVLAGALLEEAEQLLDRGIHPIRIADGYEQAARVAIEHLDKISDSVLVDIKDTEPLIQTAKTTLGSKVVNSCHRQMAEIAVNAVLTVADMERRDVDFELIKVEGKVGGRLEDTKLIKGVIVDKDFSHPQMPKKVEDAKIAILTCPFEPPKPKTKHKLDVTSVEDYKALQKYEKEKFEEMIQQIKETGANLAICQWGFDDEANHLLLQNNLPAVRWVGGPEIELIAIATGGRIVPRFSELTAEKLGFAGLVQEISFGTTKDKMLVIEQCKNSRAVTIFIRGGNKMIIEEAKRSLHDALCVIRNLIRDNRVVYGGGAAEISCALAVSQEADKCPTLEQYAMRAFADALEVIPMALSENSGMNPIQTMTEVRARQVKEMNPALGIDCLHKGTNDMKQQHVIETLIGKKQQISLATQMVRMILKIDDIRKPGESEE

Turning to `Nc1nc2cccc(-c3ccccc3)c2n1Cc1ccc(Cl)c(Cl)c1` [compound 3], the “fold changes relative to vehicle control” value in assay [1] (protein CCT4, HeLa) is recorded as 1; in assay [2] (protein DYNC1H1, HeLa), 1.07; in assay [3] (HeLa, protein UQCRC2), 1.01; in assay [4] (protein PDHX, HeLa) it was 1.12; in assay [5] (setting [9]), 1.18 fold; in assay [6] (protein PDIA3, HeLa), 0.85. Moreover, the “fold changes relative to vehicle control” value in assay [7] (HeLa, protein QTRTD1) stood at 0.99; in assay [8] (protein ECHS1, HeLa) it was 0.91.
`NCCOCCOCC(=O)Nc1nc2ncc(CNc3ccc(C(=O)NC(CCC(=O)O)C(=O)O)cc3)nc2c(=O)[nH]1` (centres unmarked) [compound 6]: the “fold changes relative to vehicle control” value in assay [1] (protein CCT4, HeLa) came to 1.14; in assay [2] (HeLa, captured protein DYNC1H1) it was 1.11; in assay [3] (HeLa, protein UQCRC2), 0.95; in assay [4] (HeLa, protein PDHX (PYRUVATE DEHYDROGENASE PROTEIN X COMPONENT, MITOCHONDRIAL PRECURSOR)), 0.92; in assay [5] (HeLa, protein CCT5), 1.29; in assay [6] (protein PDIA3, HeLa), 1.15. Further, the “fold changes relative to vehicle control” value in assay [7] (protein QTRTD1, HeLa) was determined as 0.33; in assay [8] (HeLa, captured protein ECHS1) it was 0.76.
As to `Nc1nc2[nH]cc(CCc3ccc(C(=O)N[C@@H](CCC(=O)O)C(=O)O)cc3)c2c(=O)[nH]1` [PTX, pemetrexed], the “fold changes relative to vehicle control” value is 1.01 in assay [1]; 0.99 in assay [2]; 0.93 in assay [3]; 0.98 in assay [4]; 1.13 in assay [5]; 0.97 in assay [6]. In addition, the “fold changes relative to vehicle control” value in assay [7] turned out to be 0.86; in assay [8] it was 0.98.
Regarding `Nc1nc2c(c(=O)[nH]1)N(C=O)C(CNc1ccc(C(=O)N[C@@H](CCC(=O)O)C(=O)O)cc1)CN2` (some centres unmarked) [LEU, leucovorin], the “fold changes relative to vehicle control” value was 1 in assay [1] (protein CCT4, HeLa); 1.02 in assay [2] (HeLa, captured protein DYNC1H1); 0.9 in assay [3] (HeLa, protein UQCRC2); 1.05 in assay [4] (setting [10]); 1.05 in assay [5] (HeLa, protein CCT5); 0.94 in assay [6] (protein PDIA3, HeLa). Besides, the “fold changes relative to vehicle control” value in assay [7] (protein QTRTD1, HeLa) is given as 0.93; in assay [8] (HeLa, captured protein ECHS1) it was 0.89.
On to `CCCCCCOc1ccc(Cc2cnc(N)nc2N)cc1` [compound 1], for which the “fold changes relative to vehicle control” value in assay [1] (protein CCT4, HeLa) amounted to 1.25; in assay [2] (protein DYNC1H1, HeLa), 1; in assay [3] (HeLa, protein UQCRC2), 0.97; in assay [4] (protein PDHX, HeLa), 1; in assay [5] (setting [9]), 1.41 fold; in assay [6] (protein PDIA3, HeLa) it was 1.19. In addition, the “fold changes relative to vehicle control” value was determined as 0.46 in assay [7] (HeLa, protein QTRTD1) and 0.98 in assay [8] (protein ECHS1, HeLa).
Take `NCCCNc1ccc(C(=O)NC(CCC(=O)O)C(=O)O)cc1` (centres unmarked) [compound 7]: the “fold changes relative to vehicle control” value in assay [1] (protein CCT4, HeLa) worked out at 0.94; in assay [2] (HeLa, captured protein DYNC1H1), 1.1; in assay [3] (HeLa, protein UQCRC2) it was 1.03; in assay [4] (setting [10]), 1.02; in assay [5] (HeLa, protein CCT5), 1.03; in assay [6] (protein PDIA3, HeLa) it was 0.85. Moreover, the “fold changes relative to vehicle control” value is listed as 0.99 in assay [7] (protein QTRTD1, HeLa) and 0.91 in assay [8] (HeLa, captured protein ECHS1).
In the case of `CCCCCCOc1cccc(Cc2cnc(N)nc2N)c1` [compound 2], the “fold changes relative to vehicle control” value in assay [1] (protein CCT4, HeLa) worked out at 1.73; in assay [2] (protein DYNC1H1, HeLa) it was 1.03; in assay [3] (HeLa, protein UQCRC2), 0.99; in assay [4] (protein PDHX, HeLa) it was 0.43; in assay [5] (setting [9]), 1.97 fold; in assay [6] (protein PDIA3, HeLa), 1.79. Also, the “fold changes relative to vehicle control” value in assay [7] (HeLa, protein QTRTD1) is listed as 0.93; in assay [8] (protein ECHS1, HeLa), 0.92.
